Tests used:
[1] = system: Nf1^+/- mice; assay: Contextual fear conditioning; format: in vivo, mouse
Procedure: To examine the effect of leucine on contextual fear memory, mice (wild-type or Nf1^+/− mice) were provided with normal water or leucine supplement water (0.9-3.6 g/Kg) for 7 days prior to testing, which was continued through the entire behavioral task. Mice were subjected to contextual fear conditioning, which was carried out for 6 days with one trial per day. For the first 5 days, mice were placed into the conditioning chamber for 60 sec, then a single foot shock was performed (0.4 mA intensity for 2 sec). After the foot shock, mice were left in the chamber for another 120 sec before returning to their home cage. On the 6th day, mice were placed into the conditioning chamber for 180 sec without foot shock. Freezing responses during the first 10-60 sec of each trial were videotaped and measured using the FreezeScan 2.0 system (CleverSys). Nf1^+/− mice were used to study the effect of leucine on learning and memory, in which the effect was assessed by contextual fear conditioning as described in Materials and Methods. Briefly, wild-type or Nf1^+/− mice were administered water or leucine, as a supplement in water, for 7 days and then subjected to contextual fear conditioning (FIG. 4A). There was no difference in drinking preference for water or leucine solution between WT and Nf1^+/− mice, nor was there difference in weight gain between the two mice (FIG. 4B).

[2] = system: Nf1^+/- neurons; assay: Dendritic spine density of wild-type or Nf1^+/- neurons; format: cell-based, mouse
Procedure: For primary neuronal culture, pregnant mice were sacrificed by subjecting to CO2 inhalation, and the fetal pups were isolated and sacrificed by decapitation. Then, cortical neurons were dissociated from the brains of embryonic mice of 18 days. The obtained neurons were cultured in Neurobasal medium, supplemented with 2% B27 supplement, 0.5 mM glutamine, and 12.5 μM glutamate in the density of 260,000 cells/cm^2. The cells were kept in a 5% CO2-humidified chamber at 37° C. Images of neurons were recorded with a confocal microscope (LSM700, Zeiss) equipped with a Plan-Apochromat 63×NA 1.4 oil objective lens (Zeiss) and captured with Zen acquisition and analysis software (Zeiss) at 20-22° C. as a Z-series of 5-12 sections spaced 0.6-0.8 μm apart. The Z-series was then projected into single images. The images were processed with Photoshop (Adobe), with minimal adjustment of brightness or contrast applied to the whole images. To analyze dendritic spine density, the spine number of each dendrite fragment about 20 μm in length, which started from a point 20 μm away from the soma, was manually counted using Image J software. As dendritic spine formation is highly sensitive to culture conditions, each experiment was repeated using the same lot of culture medium. […] To minimize the effects of bias, some of the critical experiments were performed blind by relabeling the samples with the assistance of other lab members.

[3] = system: SOD1-G93A mice; assay: Animal model of amyotrophic lateral sclerosis (ALS), survival; format: in vivo, mouse; settings: leucine supplement water 80 mg/day from 120 days old
Procedure: To examine the effect of leucine on ALS, 120 days old mice (wild-type or SOD1-G93A mice) were provided with normal water or leucine supplement water (80 mg/day) until animal died.
SOD1-G93A mouse is an animal model widely used in the art for ALS study. In this example, the SOD1-G93A transgenic mice were used to evaluate the effect of leucine on ALS.

[4] = system: VCP^R95G-neurons; assay: Azidohomoalanine (AHA) labelling of protein synthesis in neurons transfected with wild-type or mutant VCP; format: cell-based, mouse; settings: leucine for 3 days, AHA label 1 hour
Procedure: FIG. 1A are confocal microscopy images of neurons that are respectively transfected with specified plasmids respectively expressing wild-type (WT) VCP and mutant VCP, and treated with 2.5 mM leucine for three days and labeled with azidohomoalanine (AHA) for 1 hour according to Example 1 of the present disclosure; the transfected neurons are either pointed by arrows or outlined; scale bar presents 20 μm; FIG. 1B is a histogram depicting the relative AHA intensity of neurons that were respectively transfected with specified plasmids, and treated with different concentrations of leucine for three days and labeled with AHA for 1 hour according to Example 1 of the present disclosure; data from three independent experiments are presented as mean plus standard error of mean (SEM); ns, no significance; ***, P<0.001; For primary neuronal culture, pregnant mice were sacrificed by subjecting to CO2 inhalation, and the fetal pups were isolated and sacrificed by decapitation. Then, cortical neurons were dissociated from the brains of embryonic mice of 18 days. The obtained neurons were cultured in Neurobasal medium, supplemented with 2% B27 supplement, 0.5 mM glutamine, and 12.5 μM glutamate in the density of 260,000 cells/cm^2. The cells were kept in a 5% CO2-humidified chamber at 37° C. […]

[5] = system: VCP^R95G-expressing neurons; assay: Dendritic spine density of neurons transfected with VCP^WT or VCP^R95G plasmids; format: cell-based, mouse
Procedure: For primary neuronal culture, pregnant mice were sacrificed by subjecting to CO2 inhalation, and the fetal pups were isolated and sacrificed by decapitation. Then, cortical neurons were dissociated from the brains of embryonic mice of 18 days. The obtained neurons were cultured in Neurobasal medium, supplemented with 2% B27 supplement, 0.5 mM glutamine, and 12.5 μM glutamate in the density of 260,000 cells/cm^2. The cells were kept in a 5% CO2-humidified chamber at 37° C. The wild-type VCP gene was amplified by PCR using a forward primer having a nucleotide sequence of SEQ ID NO: 1, and a reverse primer having a nucleotide sequence of SEQ ID NO: 2. The amplified DNA segment was subsequently constructed in to GW1-Myc plasmid. To generate the […] mutation, a pair of primers respectively having nucleotide sequences of SEQ ID NOs: 3 and 4 were used in site-directed mutagenesis with wild-type VCP construct as a template. […] Images of neurons were recorded with a confocal microscope (LSM700, Zeiss) equipped with a Plan-Apochromat 63×NA 1.4 oil objective lens (Zeiss) and captured with Zen acquisition and analysis software (Zeiss) at 20-22° C. as a Z-series of 5-12 sections spaced 0.6-0.8 μm apart. […] To analyze dendritic spine density, the spine number of each dendrite fragment about 20 μm in length, which started from a point 20 μm away from the soma, was manually counted using Image J software. […]

[6] = system: Nf1^+/- mice; assay: Golgi staining of mouse brains for dendritic spine density; format: in vivo; settings: Nf1^+/- mice after taking leucine solution
[7] = system: ATL-1^R95G; assay: Dendritic spine density of neurons expressing wild-type or mutant ATL1; format: cell-based, mouse; settings: mutant ATL1 neurons; 2.5 mM or 5 mM leucine, 3 days; P<0.001
Procedure: For primary neuronal culture, pregnant mice were sacrificed by subjecting to CO2 inhalation, and the fetal pups were isolated and sacrificed by decapitation. Then, cortical neurons were dissociated from the brains of embryonic mice of 18 days. The obtained neurons were cultured in Neurobasal medium, supplemented with 2% B27 supplement, 0.5 mM glutamine, and 12.5 μM glutamate in the density of 260,000 cells/cm^2. The cells were kept in a 5% CO2-humidified chamber at 37° C. Mouse Atl1 was amplified by PCR with a primer set respectively having nucleotide sequences of SEQ ID NOs: 5 and 6. The amplified products were subcloned into the Gw1-Myc2b vector. The […] mutant was generated by site directed mutagenesis with a primer set respectively having nucleotide sequences of SEQ ID NOs: 7 and 8. Images of neurons were recorded with a confocal microscope (LSM700, Zeiss) equipped with a Plan-Apochromat 63×NA 1.4 oil objective lens (Zeiss) and captured with Zen acquisition and analysis software (Zeiss) at 20-22° C. as a Z-series of 5-12 sections spaced 0.6-0.8 μm apart. The Z-series was then projected into single images. […] To analyze dendritic spine density, the spine number of each dendrite fragment about 20 μm in length, which started from a point 20 μm away from the soma, was manually counted using Image J software. […]

CC(C)C[C@H](N)C(=O)O [leucine]
freezing responses versus WT mice ([1]; Nf1^+/- mice after leucine administration): comparable to those of WT mice | associative memory (freezing response) ([1]; Nf1^+/- mice, leucine supplement water 0.9-3.6 g/Kg, oral): significantly increase the associative memory | fear memory (freezing response) ([1]; wild-type mice, leucine supplement water 0.9-3.6 g/Kg, oral): did not further enhance the fear memory | protrusion number versus wild-type neurons ([2]; Nf1^+/- neurons, 2.5 mM leucine): equal to that of wild-type neurons | dendritic spine formation / dendritic spine number ([2]; Nf1^+/- neurons, leucine for 3 days): significantly ameliorated the defect in dendritic spine formation | number of protrusions ([2]; wild-type dendrite fragment, leucine for 3 days): did not further raise the number of protrusions | percentage of survival [3]: significantly increased the percentage of survival | mean survival time ([3]; control mice 147.3±3.84 days): 172.0 ± 3.96 days | AHA intensity [4]: dose-dependently increased the AHA intensity | protrusion number of dendrite fragment ([5]; VCP^R95G-dendrite fragment, leucine 2 mM (P<0.01) and 2.5 mM (P<0.001) vs basal, 3 days): significantly increased the protrusion number | protrusion number of dendrite fragment ([5]; VCP^WT-dendrite fragment, leucine for 3 days): did not produce obvious effect | dendritic spine density in brain [6]: increase in dendritic spine density | dendritic spine number [7]: significantly increased the dendritic spine number
